The values that follow come from BindingDB's records for doi:10.1021/jm021014d (University of Bari Aldo Moro, 2003).

Structures can show the parent of a compound that is named as a salt.

The nature of the assay: Inhibition of [3H]pentazocine binding to Sigma receptor type 1 in guinea pig brain membrane without cerebellum.
One may read the Ki as the equilibrium dissociation constant of an inhibitor or competing ligand from its target. Higher therefore signals weaker binding. With `C(/C=C/c1ccc2c(c1)OCO2)=C\CN1CCCCC1` [1-(5-Benzo[1,3]dioxol-5-yl-penta-2,4-dienyl)-piperidine], the affinity corresponds to a Ki of 0.86 nM.
The figure for `CC1CCN([C@@H](C)COc2ccc(Cl)cc2)CC1` [1-[2-(4-Chloro-phenoxy)-1-methyl-ethyl]-4-methyl-piperidine; hydrochloride] is 0.34 nM; for `CC1CCN([C@H](C)COc2ccc(Cl)cc2)CC1` [1-[2-(4-Chloro-phenoxy)-1-methyl-ethyl]-4-methyl-piperidine; hydrochloride] it is 1.18 nM.
The figure for `CC1CCN(C[C@@H](C)COc2ccc(Cl)cc2)CC1` [1-[3-(4-Chloro-phenoxy)-2-methyl-propyl]-4-methyl-piperidine; hydrochloride] is 1.7 nM; for `CC1CCN(C[C@H](C)COc2ccc(Cl)cc2)CC1` [1-[3-(4-Chloro-phenoxy)-2-methyl-propyl]-4-methyl-piperidine; hydrochloride] it is 1.09 nM.
